Measurements reported in patent US20250122221A1 (NANJING ZAIMING PHARMACEUTICAL CO., LTD., priority 2022, published 2025).

Biological target: N-terminal active peptide segment (MI-N899) of POLQ with ATPase activity (Homo sapiens (Human), UniProt O75417)
Assay: POLQ enzyme activity inhibition experiment (ATPase, NADH-coupled, OD 340 nm)
Format: biochemical
Details: 100 nM POLQ (N), 100 μM ATP, 300 nM dT50
Protocol: The Envision microplate reader from Perkin Elmer Inc was used to measure the reduction of OD value of NADH at 340 nm, thus reflecting the enzyme activity. Experimental method: The POLQ enzyme was diluted to 100 nM with a reaction buffer (20 mM Tris HCl (pH 7.80), 80 mM KCl, 10 mM MgCl2, 1 mM DTT, 0.01% w/v bovine serum albumin, 0.01% v/v Tween-20, and 5% v/v glycerol). The compounds to be tested were diluted to different concentrations in dimethyl sulfoxide (DMSO) using the Echo 650 pipetting system, and transferred to a 384-well plate, 20 μL/well of 100 nM POLQ was added, and the mixture was incubated at room temperature for 15 minutes. A reaction mixture solution was formulated, and the concentration of each component in the reaction mixture solution was: 100 μM ATP, 300 nM […], 300 μM NADH, 6 mM PEP, 10 U/mL lactate dehydrogenase and 20 U/mL pyruvate kinase. 20 μL/well of reaction mixture solution was added to start the enzyme reaction. […] The concentration range was from 10 μM to 0.0005 μM, and the final concentration of DMSO in the system was 0.2% v/v. The 384-well plate was reacted at room temperature for 20 minutes, and then the OD value at 340 nm was read with an Envision microplate reader. The inhibition rate was calculated, and XLfit software was used to perform fitting to obtain IC50 of the compounds. In the experiment, a blank group and a DMSO group were set up, respectively.

Sequence of N-terminal active peptide segment (MI-N899) of POLQ with ATPase activity (O75417 1-899 limits assumed): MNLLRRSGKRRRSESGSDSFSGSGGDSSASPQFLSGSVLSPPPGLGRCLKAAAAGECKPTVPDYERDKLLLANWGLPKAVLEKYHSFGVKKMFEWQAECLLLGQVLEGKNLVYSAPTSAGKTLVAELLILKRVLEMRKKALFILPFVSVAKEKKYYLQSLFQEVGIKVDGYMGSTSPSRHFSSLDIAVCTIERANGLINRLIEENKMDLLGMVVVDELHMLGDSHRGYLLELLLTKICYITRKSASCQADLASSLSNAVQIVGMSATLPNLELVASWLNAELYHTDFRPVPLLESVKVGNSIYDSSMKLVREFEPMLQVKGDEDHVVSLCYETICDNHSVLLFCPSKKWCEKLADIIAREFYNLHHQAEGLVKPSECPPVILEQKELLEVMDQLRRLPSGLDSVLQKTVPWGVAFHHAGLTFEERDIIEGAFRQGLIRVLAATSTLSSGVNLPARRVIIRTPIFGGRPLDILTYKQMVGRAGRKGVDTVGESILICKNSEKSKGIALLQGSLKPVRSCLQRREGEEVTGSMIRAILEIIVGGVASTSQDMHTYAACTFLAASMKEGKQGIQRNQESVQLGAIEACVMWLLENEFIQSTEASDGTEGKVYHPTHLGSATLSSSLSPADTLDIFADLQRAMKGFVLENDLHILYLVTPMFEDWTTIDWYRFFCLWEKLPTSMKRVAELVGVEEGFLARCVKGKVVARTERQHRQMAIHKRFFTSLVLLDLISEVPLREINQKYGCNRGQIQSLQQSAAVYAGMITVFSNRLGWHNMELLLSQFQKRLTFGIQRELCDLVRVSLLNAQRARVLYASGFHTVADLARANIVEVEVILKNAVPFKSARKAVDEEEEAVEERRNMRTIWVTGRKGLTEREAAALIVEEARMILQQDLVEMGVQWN

COc1ccccc1-c1ncccc1C(=O)Nc1nc2ncc(-c3ccc(C#N)cc3)nc2s1 [Compound 50, N-(6-(4-cyanophenyl)thiazolo[4,5-b]pyrazin-2-yl)-2-(2-methoxyphenyl)pyridine-3-carboxamide]
IC50: < 100 nM

COc1ccccc1-c1cncnc1C(=O)Nc1nc2ncc(-c3ccc(C#N)cc3)nc2s1 [Compound 52, N-(6-(4-cyanophenyl)thiazolo[4,5-b]pyrazin-2-yl)-5-(2-methoxyphenyl)pyrimidine-4-carboxamide]
IC50: < 100 nM

COc1ccccc1-c1cnc(C(F)(F)F)cc1C(=O)Nc1nc2ncc(-c3ccc(C#N)cc3)nc2s1 [Compound 53, N-(6-(4-cyanophenyl)thiazolo[4,5-b]pyrazin-2-yl)-5-(2-methoxyphenyl)-2-(trifluoromethyl)pyridine-4-carboxamide]
IC50: 100 to 500 nM

COc1ccccc1-c1cncc(F)c1C(=O)Nc1nc2ncc(-c3ccc(C#N)cc3)nc2s1 [Compound 54, N-(6-(4-cyanophenyl)thiazolo[4,5-b]pyrazin-2-yl)-3-fluoro-5-(2-methoxyphenyl)pyridine-4-carboxamide]
IC50: < 100 nM

COc1ccccc1-c1ccccc1C(=O)Nc1nc2ncc(-c3ccc(C#N)cc3)nc2s1 [Compound 55, N-(6-(4-cyanophenyl)thiazolo[4,5-b]pyrazin-2-yl)-2′-methoxy-[1,1′-biphenyl]-2-carboxamide]
IC50: < 100 nM

COc1ccccc1-c1cn2ncnc2cc1C(=O)Nc1nc2ncc(-c3ccc(C#N)cc3)nc2s1 [Compound 57, N-(6-(4-cyanophenyl)thiazolo[4,5-b]pyrazin-2-yl)-6-(2-methoxyphenyl)-[1,2,4]triazolo[1,5-a]pyridine-7-carboxamide]
IC50: < 100 nM

C#Cc1ccccc1-c1nc(C)ncc1C(=O)Nc1nc2ncc(-c3ccc(C#N)cc3)nc2s1 [Compound 59, N-(6-(4-cyanophenyl)thiazolo[4,5-b]pyrazin-2-yl)-4-(2-ethynylphenyl)-2-methylpyrimidine-5-carboxamide]
IC50: < 100 nM

C#Cc1ccccc1-c1cc(C)ncc1C(=O)Nc1nc2ncc(-c3ccc(C#N)cc3)cc2s1 [Compound 60, N-(6-(4-cyanophenyl)thiazolo[4,5-b]pyridin-2-yl)-4-(2-ethynylphenyl)-6-methylpyridine-3-carboxamide]
IC50: < 100 nM

C#Cc1cnc(C)cc1-c1cc(C)ncc1C(=O)Nc1nc2ncc(-c3ccc(C#N)cc3)nc2s1 [Compound 64, N-(6-(4-cyanophenyl)thiazolo[4,5-b]pyrazin-2-yl)-5′-ethynyl-2′,6-dimethyl-[4,4′-bipyridine]-3-carboxamide]
IC50: < 100 nM

COc1cnc(C#N)cc1-c1cc(C)ncc1C(=O)Nc1nc2ncc(-c3ccc(Cl)cn3)nc2s1 [Compound 65, N-(6-(5-chloropyridin-2-yl)thiazolo[4,5-b]pyrazin-2-yl)-2′-cyano-5′-methoxy-6-methyl-[4,4′-bipyridine]-3-carboxamide]
IC50: < 100 nM

COc1cnc(C)cc1-c1cc(C)ncc1C(=O)Nc1nc2ncc(-c3ccc(Cl)cn3)nc2s1 [Compound 66, N-(6-(5-chloropyridin-2-yl)thiazolo[4,5-b]pyrazin-2-yl)-5′-methoxy-2′,6-dimethyl-[4,4′-bipyridine]-3-carboxamide]
IC50: < 100 nM

COc1cnc(C)cc1-c1cc(C)ncc1C(=O)Nc1nc2ncc(-c3ccc(Cl)cc3)nc2s1 [Compound 67, N-(6-(4-chlorophenyl)thiazolo[4,5-b]pyrazin-2-yl)-5′-methoxy-2′,6-dimethyl-[4,4′-bipyridine]-3-carboxamide]
IC50: < 100 nM

COc1cnc(C)cc1-c1cc(C)ncc1C(=O)Nc1nc2ncc(C3CCOC3)nc2s1 (stereo not shown) [Compound 69-P1, N-(6-(tetrahydrofuran-3-yl)thiazolo[4,5-b]pyrazin-2-yl)-5′-methoxy-2′,6-dimethyl-[4,4′-bipyridine]-3-carboxamide]
IC50: < 100 nM

COc1cnc(C)cc1-c1cc(C)ncc1C(=O)Nc1nc2ncc(-c3ccc(C#N)cc3F)nc2s1 [Compound 70, N-(6-(4-cyano-2-fluorophenyl)thiazolo[4,5-b]pyrazin-2-yl)-5′-methoxy-2′,6-dimethyl-[4,4′-bipyridine]-3-carboxamide]
IC50: < 100 nM

COc1ccc(Cl)cc1-c1cc(C)ncc1C(=O)Nc1nc2ncc(-c3ccc(Cl)cn3)nc2s1 [Compound 71, 4-(5-chloro-2-methoxyphenyl)-N-(6-(5-chloropyridin-2-yl)thiazolo[4,5-b]pyrazin-2-yl)-6-methylpyridine-3-carboxamide]
IC50: < 100 nM

COc1cnc(C)c(F)c1-c1cc(C)ncc1C(=O)Nc1nc2ncc(-c3ccc(C#N)cc3)nc2s1 [Compound 76, N-(6-(4-cyanophenyl)thiazolo[4,5-b]pyrazin-2-yl)-3′-fluoro-5′-methoxy-2′,6-dimethyl-[4,4′-bipyridine]-3-carboxamide]
IC50: < 100 nM

Cc1cc(-c2cc(Cl)ccc2C(F)(F)F)c(C(=O)Nc2nc3ncc(-c4ccc(C#N)cc4)nc3s2)cn1 [Compound 88, 4-(5-chloro-2-(trifluoromethyl)phenyl)-N-(6-(4-cyanophenyl)thiazolo[4,5-b]pyrazin-2-yl)-6-methylpyridine-3-carboxamide]
IC50: < 100 nM

Cc1cc(-c2cc(Cl)ccc2OC(F)F)c(C(=O)Nc2nc3ncc(-c4ccc(C#N)cc4)nc3s2)cn1 [Compound 89, 4-(5-chloro-2-(difluoromethoxy)phenyl)-N-(6-(4-cyanophenyl)thiazolo[4,5-b]pyrazin-2-yl)-6-methylpyridine-3-carboxamide]
IC50: < 100 nM

Cc1cc(-c2cc(Cl)ccc2OC(F)(F)F)c(C(=O)Nc2nc3ncc(-c4ccc(C#N)cc4)nc3s2)cn1 [Compound 90, 4-(5-chloro-2-(trifluoromethoxy)phenyl)-N-(6-(4-cyanophenyl)thiazolo[4,5-b]pyrazin-2-yl)-6-methylpyridine-3-carboxamide]
IC50: < 100 nM
